Consider nine molecules from US20020028193A1, “Recombinant beta2-adrenergic receptor delivery and use in treating airway and vascular diseases” (priority 2000, published 2002).

Where “and” joins values, the source holds several entries; their conditions need not be identical. Equal entries are not always repeated.

The target of data set [1] is T1, β2AR (Rattus norvegicus, UniProt P10608). The note with it: SPOC1 cell membranes.
The test system of data set [2] is β2AR-luciferase fusion genes. The data set is described as follows: Dexamethasone induction of β2AR-luciferase fusion genes transiently transfected into HepG2 cells. The conditions noted are these: pβ2AR(−643/+126); 0.1 μM dexamethasone, 8 hrs. The data set is classed as cell-based, human. As for the experimental part: HepG2 cells were transiently transfected with pRShGRα, pRSVβ-ga1, and either pβ2AR(−62/+126), pβ2AR(−152/+126), pβ2AR(−643/+126), pβ2AR(−1115/+126), pβ2AR(−2552/+126), pβ2AR(−3129/+126), or N-600 prATLUC. Transfected cells were incubated for 48 hours prior to addition of dexamethasone. Luciferase activity for each construct is expressed relative to that obtained with pβ2AR(−62/+126) in the absence of dexamethasone.
Human HepG2 cells were transiently transfected with pRShGRα, pRSVβ-gal, and either pβ2AR(−3129/+126) or pβ2ARm1 (−3129/+126) as described in the specification. After transfection, the cells were incubated for 8 hours in either the absence or presence of 0.1 μM dexamethasone and cells were harvested. Values are means±S.E. of data from five independent experiments, each performed in triplicate. Asterisks indicate a significant (p<0.05) difference in luciferase activity from untreated and dexamethasone-treated cells as determined by Student's t-test.
In order to determine whether the six putative GREs were functional, six β2AR-luciferase fusion gene deletion mutants were generated. […] To test the effect of dexamethasone on expression of the truncated β2AR-luciferase fusion genes, HepG2 cells transfected with each of the six fusion genes were incubated with either vehicle or 0.1 μM dexamethasone for 8 hrs, and luciferase activity was determined. […]

In data set [3] the test system is β2AR-luciferase fusion genes. The data set is described as follows: Dexamethasone induction of β2AR-luciferase fusion genes in transiently transfected SPOC1 cells. The conditions noted are these: pβ2AR(−3129/+126) in SPOC1 cells; 0.1 μM dexamethasone, 8 hrs. It is filed as cell-based, rat.
In another data set the test system is GRE-pT81LUC fusion genes. Kind of data set: Dexamethasone induction of putative GREs fused to heterologous thymidine kinase promoter (pT81LUC) in HepG2 cells. It is filed as cell-based, human. The note with it: 0.1 μM dexamethasone. On the procedure:
Plasmid constructs with the luciferase gene under the control of the tk promoter and various putative GREs (see FIG. 8 for sequences) were tested for luciferase activity after transfection into HepG2 cells that were co-transfected with pRShGRα. Transfected cells were incubated for 48 hours prior to addition of 0.1 μM dexamethasone.
To further examine the functionality of the putative glucocorticoid response elements, fragments containing either GRE1, GRE5, or GRE2, GRE3 and GRE4 together were fused to pT81LUC, a luciferase expression plasmid driven by a minimal thymidine kinase promoter.^102 Sequences of the double stranded oligonucleotides containing GRE1, GRE5 and the MMTV GRE are shown in FIG. 10. […] Activity of GRE5-pT81LUC was induced 3.2-fold in the presence of 0.1 μM dexamethasone (FIG. 12), a value that was higher than that observed with any of the β2AR-luciferase fusion genes that included GRE5. Activity of GRE1-pT81LUC was not induced by 0.1 μM dexamethasone (FIG. 12). […] This level of fold-induction was similar to that obtained with MMTVsequence fused to pT81LUC.

For data set [4], the target named is T1, β2AR. Kind of data set: Cyclic AMP accumulation in SPOC1 cells (radioimmunoassay). The data set is classed as cell-based. On the set-up: Because SPOC1 cells express a wild-type β2AR; endogenous in cells; host or cells: SPOC1 rat tracheal epithelial cells. As for the experimental part:
Cyclic AMP accumulation was measured by radioimmunoassay. Significant differences were determined by one way ANOVA and Neuman-Keuls test.
In order to determine if the recombinant β2AR expressed in clonal SPOC1 cells is able to functionally couple to adenylyl cyclase, cyclic AMP radioimmunoassays are performed using lysates. Mock-infected and clonal SPOC1 cells are plated at a density of 100,000 cells/well in 12-well dishes (Costar, Cambridge, Mass.). Cells are treated with adrenergic agonists and the phosphodiesterase inhibitor isobutylmethylxanthine (IBMX) for 10 min. Cellular cyclic AMP levels are determined by radioimmunoassay using the Biotrak CAMP Assay System (Amersham Life Science, Arlington Heights, Ill.). […] These experiments are repeated four times with four different SPOC1 cell platings.

Another data set deals with mucociliary clearance. The conditions noted are these: inhaled, humans, controls and asthmatic individuals; cited from earlier work.
Data set [5] has as its target glucocorticoid receptor alpha (expressed from pRShGRalpha) (Homo sapiens) (UniProt P04150). Kind of data set: cell_activity. The conditions noted are these: MMTV-pT81LUC in HepG2, 0.1 uM dexamethasone.
The target in data set [6] is glucocorticoid receptor (recombinant human GR) (Homo sapiens, UniProt P04150 P04150:1-777). Kind of data set: competition; unlabeled competitor did not compete with labeled GRE5 at up to 250-fold excess. The note with it: chain copies: 2. On the procedure: To further characterize the ability of GRE₅ to bind glucocorticoid receptor in vitro, we performed electrophoretic mobility shift assays with recombinant human glucocorticoid receptor and serial dilutions of various competitor oligonucleotides was performed.
Sequence of glucocorticoid receptor (recombinant human GR) (P04150 whole entry, one chain of several): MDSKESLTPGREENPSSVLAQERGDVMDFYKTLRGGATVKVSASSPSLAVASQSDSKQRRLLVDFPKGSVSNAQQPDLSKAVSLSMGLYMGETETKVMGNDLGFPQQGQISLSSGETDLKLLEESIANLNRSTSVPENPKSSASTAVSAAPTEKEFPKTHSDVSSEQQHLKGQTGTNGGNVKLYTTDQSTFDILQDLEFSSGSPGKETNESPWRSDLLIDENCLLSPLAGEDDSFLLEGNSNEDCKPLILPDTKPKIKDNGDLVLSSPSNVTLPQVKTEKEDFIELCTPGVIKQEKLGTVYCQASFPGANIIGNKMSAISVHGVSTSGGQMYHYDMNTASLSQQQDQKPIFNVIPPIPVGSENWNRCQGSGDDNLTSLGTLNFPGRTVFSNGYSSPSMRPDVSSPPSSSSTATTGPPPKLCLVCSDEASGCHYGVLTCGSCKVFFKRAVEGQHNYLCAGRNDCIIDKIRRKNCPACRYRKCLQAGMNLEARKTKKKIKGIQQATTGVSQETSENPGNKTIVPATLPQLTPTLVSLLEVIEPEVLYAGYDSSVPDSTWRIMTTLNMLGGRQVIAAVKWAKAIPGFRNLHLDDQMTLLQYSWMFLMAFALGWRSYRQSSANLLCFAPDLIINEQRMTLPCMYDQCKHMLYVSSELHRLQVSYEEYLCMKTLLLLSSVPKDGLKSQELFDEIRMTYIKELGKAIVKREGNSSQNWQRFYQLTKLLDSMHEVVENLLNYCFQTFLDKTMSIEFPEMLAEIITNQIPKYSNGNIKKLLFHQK

For data set [7], the target named is glucocorticoid receptor alpha (expressed from pRShGRalpha) (Homo sapiens, UniProt P04150 P04150:1-777). The data set is described as follows: cell_activity; GRE5-pT81LUC in HepG2, 0.1 uM dexamethasone. The conditions noted are these: tags: co-transfected expression plasmid pRShGRalpha in HepG2 cells; chain copies: 2; label: 32P. The source says: To further examine the functionality of the putative glucocorticoid response elements, fragments containing either GRE₁, GRE₅, or GRE₂, GRE₃ and GRE₄ together were fused to pT81LUC, a luciferase expression plasmid driven by a minimal thymidine kinase promoter.¹⁰² Sequences of the double stranded oligonucleotides containing GRE₁, GRE₅ and the MMTV GRE are shown in FIG. 10.
Sequence of glucocorticoid receptor alpha (expressed from pRShGRalpha) (P04150 whole entry, the tested form may be a part, one chain of several): as the sequence (P04150 whole entry, one chain of several) above

T1 sequence (P10608 whole entry, the tested form may be a part): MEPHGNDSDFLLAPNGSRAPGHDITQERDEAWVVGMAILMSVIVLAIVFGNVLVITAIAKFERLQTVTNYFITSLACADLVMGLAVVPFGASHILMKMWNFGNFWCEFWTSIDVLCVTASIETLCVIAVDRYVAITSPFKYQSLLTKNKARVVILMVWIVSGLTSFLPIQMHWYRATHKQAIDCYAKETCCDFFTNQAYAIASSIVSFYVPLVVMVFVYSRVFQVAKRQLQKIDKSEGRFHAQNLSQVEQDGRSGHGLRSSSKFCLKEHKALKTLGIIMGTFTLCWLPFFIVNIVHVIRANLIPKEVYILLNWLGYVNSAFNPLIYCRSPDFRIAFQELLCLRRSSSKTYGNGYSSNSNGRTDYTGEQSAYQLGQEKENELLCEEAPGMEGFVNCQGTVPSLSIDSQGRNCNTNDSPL
Sequence of glucocorticoid receptor alpha (expressed from pRShGRalpha) (Homo sapiens) (P04150 whole entry): as the sequence (P04150 whole entry, one chain of several) above

In turn, `CC(C)(C)NCC(O)COc1cccc2[nH]c(C#N)c(I)c12` (stereo not shown) [[^125I]CYP, [^125I]cyanoiodopindolol] gave a binding site concentration at β2AR [1] ([125I]CYP saturation) of 60 fmol/mg protein. The Kd at β2AR [1] (read-out: [125I]CYP dissociation constant, 37° C., 2 hour, nonspecific binding 0.1 μM (−)-propranolol, representative Scatchard plot) turned out to be 0.01 nM.

Turning to `C[C@@H]1C[C@H]2[C@@H]3CCC4=CC(=O)C=C[C@]4(C)[C@@]3(F)[C@@H](O)C[C@]2(C)[C@@]1(O)C(=O)CO` [dexamethasone], the “induction of luciferase activity” value in data set [2] is listed as “approximately 1.5 fold”; in the data set on GRE-pT81LUC fusion genes (GRE5-pT81LUC), 3.2 fold; in the data set on GRE-pT81LUC fusion genes (MMTV-pT81LUC fusion gene (positive control)), approximately 4 fold. Also, the “induction in luciferase activity” value in data set [3] was approximately 2 fold.

For the molecule `CC(C)NCC(O)c1ccc(O)c(O)c1` (stereo not shown) [isoproterenol], at β2AR [4], the “Cyclic AMP production” value is 3.17±0.57 fmol/min/mg protein and 5.95±1.4 fmol/min/mg protein.

As for `CCC(NC(C)C)C(O)c1ccc(O)c2[nH]c(=O)ccc12` (stereo not shown) [procaterol], the “effect on mucociliary clearance” value in the data set with mucociliary clearance is “no effect”.

As to `CC(C)(C)NCC(O)c1cc(O)cc(O)c1` (stereo not shown) [terbutaline], the “effect on mucociliary clearance” value in the data set on mucociliary clearance is recorded as “increases”.

Take MMTV GRE: in data set [5], the activity (fold induction) was found to be 4.

For the molecule isobutylmethylxanthine [IBMX], at β2AR [4] (100 μM IBMX, 10 min at 37° C., control 0.27±0.08, statistically insignificant increase), the “Cyclic AMP accumulation” value came to 0.40±0.04 fmol/min/mg protein.

B1: m1GRE5 (core printed only) (dsDNA)
DNA 1: GGGTGAGCTATTCT
DNA 2: AGAATAGCTCACCC
In the case of B1, the binding result in data set [6] was “no binding”.

B2: GRE5 (rat beta2AR gene, 35 bp oligonucleotide; core printed only) (dsDNA)
DNA 1: GGGTGAGCTGTTCT
DNA 2: AGAACAGCTCACCC
Take B2: in data set [7], the activity was 3.2 fold induction.
